The subject of assay [1] is Uterine Eosinophil Peroxidase (EPO). Description: Uterine Eosinophil Peroxidase (EPO) Assay (Table 1). It counts as in vivo, female Sprague Dawley rats. Details: key to Uterine EPO (V. max): Vmax of absorbance increase at 450 nm, monitored over 1 min. Conditions: OVX rats, daily for 4 days. The text has this: (§1) Seventy-five day old female Sprague Dawley rats (weight range of 200 to 225 g) were obtained from Charles River Laboratories (Portage, Mich.). The animals were either bilaterally ovariectomized (OVX) or exposed to a sham surgical procedure at Charles River Laboratories, and then shipped after one week. Upon arrival, they were housed in metal hanging cages in groups of 3 or 4 per cage and had ad libitum access to food (calcium content approximately 0.5%) and water for one week. Room temperature was maintained at 22.2° ±1.7° C. with a minimum relative humidity of 40%. The photoperiod in the room was 12 hours light and 12 hours dark.
(§2) Dosing Regimen Tissue Collection. After a one week acclimation period (therefore, two weeks post-OVX) daily dosing with test compound was initiated. 17α-ethynyl estradiol or the test compound were given orally, unless otherwise stated, as a suspension in 1% carboxymethylcellulose or dissolved in 20% cyclodextrin. Animals were dosed daily for 4 days. Following the dosing regimen, animals were weighed and anesthetized with a ketamine: Xylazine (2:1, V:V) mixture and a blood sample was collected by cardiac puncture. The animals were then sacrificed by asphyxiation with CO2, the uterus was removed through a midline incision, and a wet uterine weight was determined.
Uterine Eosinomhil Peroxidase (EPO) Assay. Uteri were kept at 4° C. until time of enzymatic analysis. The uteri were then homogenized in 50 volumes of 50 mM Tris buffer (pH-8.0) containing 0.005% Triton X-100. Upon addition of 0.01% hydrogen peroxide and 10 mM O-phenylenediamine (final concentrations) in Tris buffer, increase in absorbance was monitored for one minute at 450 nm. The presence of eosinophils in the uterus is an indication of estrogenic activity of a compound. The maximal velocity of a 15 second interval was determined over the initial, linear portion of the reaction curve.
As is expressed in the below data, estrogenicity also was assessed by evaluating the response of eosinophil infiltration into the uterus.
(§3) The data presented in Table 1 below reflects the response of 5 to 6 rats per treatment.

A further assay has as its system uterus. In words: Uterine weight in ovariectomized rats, 4-day oral dosing (Table 1). It counts as in vivo, female Sprague Dawley rats. Conditions: Rattus norvegicus, po, 96 h, OVX rats, daily for 4 days, read-out: Uterine Wt. (% inc. vs. OVX); for change in vivo at 0.1 mg/kg: 0.1 mg/kg oral; for change in vivo at 1 mg/kg: 1 mg/kg oral; for change in vivo at 10 mg/kg: 10 mg/kg oral; for change in vivo at 25 mg/kg: 25 mg/kg oral. The method, then:
In the examples illustrating the methods, a post-menopausal model was used in which effects of different treatments upon circulating lipids were determined.
as §1, §2
(§4) Data presented in Table 1 below show comparative results among ovariectomized rats, rats treated with 17α-ethynyl estradiol (EE2; an orally available form of estrogen), and rats treated with certain compounds of the present invention. […] This uterine response to estrogen is well recognized in the art.
as §3

The test system of assay [2] is MCF-7 breast adenocarcinoma cells. In words: MCF-7 Proliferation Assay. It counts as cell-based. The settings on record: Homo sapiens, MCF7, tritiated thymidine, 48 hours. As for the experimental part: MCF-7 breast adenocarcinoma cells (ATCC HTB 22) were maintained in MEM (minimal essential medium, phenol red-free, Sigma, St. Louis, Mo.) supplemented with 10% fetal bovine serum (FBS) (V/V), L-glutamine (2 mM), sodium pyruvate (1 mM), HEPES {(N-[2-hydroxyethyl]piperazine-N'-[2-ethanesulfonic acid]10 mM}, non-essential amino acids and bovine insulin (1 ug/mL) (maintenance medium). Ten days prior to assay, MCF-7 cells were switched to maintenance medium supplemented with 10% dextran coated charcoal stripped fetal bovine serum (DCC-FBS) assay medium) in place of 10% FBS to deplete internal stores of steroids. MCF-7 cells were removed from maintenance flasks using cell dissociation medium (Ca++/Mg++free HBSS (phenol red-free) supplemented with 10 mM HEPES and 2 mM EDTA). Cells were washed twice with assay medium and adjusted to 80,000 cells/mL. Approximately 100 μL (8,000 cells) were added to flat-bottom microculture wells (Costar 3596) and incubated at 37° C. in a 5% CO2 humidified incubator for 48 hours to allow for cell adherence and equilibration after transfer. Serial dilutions of drugs or DMSO as a diluent control were prepared in assay medium and 50 μL transferred to triplicate microcultures followed by 50 μL assay medium for a final volume of 200μ. After an additional 48 hours at 37° C. in a 5% CO2 humidified incubator, microcultures were pulsed with tritiated thymidine (1 uCi/well) for 4 hours. Cultures were terminated by freezing at -70° C. for 24 hours followed by thawing and harvesting of microcultures using a Skatron Semiautomatic Cell Harvester. Samples were counted by liquid scintillation using a Wallac BetaPlace β counter. Results in Table 4 below show the IC50 for certain compounds of the present invention.

The subject of a further assay is Serum cholesterol. Description: Serum cholesterol in ovariectomized rats, 4-day oral dosing (Table 1). Conditions: Rattus norvegicus, po, 96 h, OVX rats, daily for 4 days; for inhibition in vivo at 0.1 mg/kg: 0.1 mg/kg oral; for inhibition in vivo at 1 mg/kg: 1 mg/kg oral; for ED50: oral, dose column in mg/kg, read-out: ED50 (effective dose to dec. serum chol. by 50%); for inhibition in vivo at 25 mg/kg: 25 mg/kg oral. It counts as in vivo, female Sprague Dawley rats.
From the text: as §1, §2
Cholesterol Analysis. Blood samples were allowed to clot at room temperature for 2 hours, and serum was obtained following centrifugation for 10 minutes at 3000 rpm. Serum cholesterol was determined using a Boehringer Mannheim Diagnostics high performance cholesterol assay. Briefly the cholesterol was oxidized to cholest-4-en-3-one and hydrogen peroxide. The hydrogen peroxide was then reacted with phenol and 4-aminophenazone in the presence of peroxidase to produce a p-quinone imine dye, which was read spectrophotometrically at 500 nm. Cholesterol concentration was then calculated against a standard curve. The entire assay was automated using a Biomek Automated Workstation.
as §4, §3

The mark [3] stands for this setting: read-out: Serum Cholesterol (% dec. vs. OVX).

The values below come from patent US5672609A, “Pyridine compounds, intermediates compositions and methods of use” (Eli Lilly and Company, priority 1996, dated 1997).

Some results are limits rather than exact numbers.

Take `Oc1ccc(-c2ccc(-c3ccc(O)cc3)c(-c3ccc(OCCN4CCCC4)cc3)n2)cc1` [Example 14, 2-[4-[2-(1-Pyrrolidinyl)ethoxy]phenyl]-3,6-bis(4-hydroxyphenyl)pyridine]: the “Uterine EPO (V. max)” value in assay [1] (0.1 mg/kg oral) is 2.4. For the same compound, in assay [1] (1 mg/kg oral), the “Uterine EPO (V. max)” value is listed as 4.5. Besides, the “Uterine EPO (V. max)” value in assay [1] (10 mg/kg oral) was determined as 4.2. Also, in the assay with uterus, the change in vivo at 0.1 mg/kg was determined as 6.3%, the change in vivo at 1 mg/kg is -3.3% and the change in vivo at 10 mg/kg is 8.8%. For the same compound, the IC50 in assay [2] came to 0.009 µM. For the same compound, in the assay with Serum cholesterol (setting [3]), the inhibition in vivo at 0.1 mg/kg came to 11.9% and the inhibition in vivo at 1 mg/kg was -16.5%. Besides, in the assay on Serum cholesterol (10 mg/kg oral, read-out: Serum Cholesterol (% dec. vs. OVX)), the inhibition in vivo at 10 mg/kg was -7.3%. Moreover, the 50% effective dose (ED50) in the assay with Serum cholesterol is more than 10 mg/kg.

For the compound `COc1ccc(-c2ccc(-c3ccc(F)cc3)nc2-c2ccc(OCCN3CCCCC3)cc2)cc1` [Example 6, 2-[4-[2-(1-Piperidinyl)ethoxy]phenyl]-3-(4-methoxyphenyl)-6-(4-fluorophenyl)pyridine], the “Uterine EPO (V. max)” value in assay [1] (0.1 mg/kg oral) was found to be 6.6. In assay [1] (25 mg/kg oral), the “Uterine EPO (V. max)” value was determined as 22.6. Further, in the assay with uterus, the change in vivo at 0.1 mg/kg was determined as 9.5%, the change in vivo at 10 mg/kg was determined as 44.2% and the change in vivo at 25 mg/kg worked out at 69.5%. In addition, 0.47 µM corresponded to half-maximal inhibition in assay [2] (IC50). Further, in the assay on Serum cholesterol (setting [3]), the inhibition in vivo at 0.1 mg/kg worked out at 4%, the inhibition in vivo at 1 mg/kg was found to be 12.3% and the inhibition in vivo at 25 mg/kg turned out to be 40.8%. In addition, in the assay on Serum cholesterol, the ED50 came out at 70 mg/kg.

In the case of `Oc1ccc(-c2ccc(-c3ccc(F)cc3)nc2-c2ccc(OCCN3CCCCC3)cc2)cc1` [Example 12, 2-[4-[2-(1-Piperidinyl)ethoxy]phenyl]-3-(4-hydroxyphenyl)-6-(4-fluorophenyl)pyridine], in assay [1] (0.1 mg/kg oral), the “Uterine EPO (V. max)” value amounted to 5.9. Moreover, the “Uterine EPO (V. max)” value in assay [1] (25 mg/kg oral) was determined as 67.9. In the assay with uterus, the change in vivo at 0.1 mg/kg was determined as 9.8%, the change in vivo at 1 mg/kg worked out at 4.2%, the change in vivo at 10 mg/kg is 76.2% and the change in vivo at 25 mg/kg was found to be 68%. Also, the IC50 in assay [2] was 0.185 µM. Further, in the assay on Serum cholesterol (setting [3]), the inhibition in vivo at 0.1 mg/kg was 26.2% and the inhibition in vivo at 25 mg/kg worked out at 49.9%.
